Read-outs that look alike come from different tables or passages of the source.
How the values were obtained:
A549 cells = assay: Cell-based assay, IL-6 ELISA quantification in IL-1 beta stimulated A549 cells; details: 2 ng/ml human IL-1 beta overnight, class symbols, read-out: Celluar Data EC50
Description: The cell-based assays is based on IL-6 ELISA quantification. Briefly, A549 cells are cultured in DMEM with 10% FBS medium. When cells reach 80% confluence they are trypsin treated and seeded in 96-well plate at 2.5×10^4 cells/well. Then, 20 ul of compound serial dilutions (starting at 10 uM, 10 points) are added to the cell plate; incubate for 1 hour at 37 C and stimulated with 2 ng/ml human IL-1 beta 37 C overnight. The next day 100 ul of cell supernatant per well are analyzed on a Human IL-6 Quantikine ELISA kit from R&D Systems.

IRAK4 = IRAK4 (Homo sapiens (Human), UniProt Q9NWZ3); assay: IRAK-4 biochemical kinase assay, AlphaScreen format
Description: The biochemical assay is in a AlphaScreen format. The kinase reaction is based on the IRAK-4 phosphorylation of a biotin labeled peptide. The phosphopeptide is incubated with anti-phosphothreonine antibody as well as streptavidin- and protein A-coated beads. Binding of the protein-A coated beads to the antibody and the streptavidin beads to the peptide, leads to an energy transfer from one bead to the other, ultimately producing a luminescent/fluorescent signal.

[1] = 1 nM IRAK4, 1.6 μM peptide, 10 μM ATP, 3.5 h at RT, class symbols
[2] = 1 nM IRAK4, 1.6 μM peptide, 10 μM ATP, 3.5 h at RT, given as numeric bound

IRAK4, sequence (Q9NWZ3 whole entry, species assumed): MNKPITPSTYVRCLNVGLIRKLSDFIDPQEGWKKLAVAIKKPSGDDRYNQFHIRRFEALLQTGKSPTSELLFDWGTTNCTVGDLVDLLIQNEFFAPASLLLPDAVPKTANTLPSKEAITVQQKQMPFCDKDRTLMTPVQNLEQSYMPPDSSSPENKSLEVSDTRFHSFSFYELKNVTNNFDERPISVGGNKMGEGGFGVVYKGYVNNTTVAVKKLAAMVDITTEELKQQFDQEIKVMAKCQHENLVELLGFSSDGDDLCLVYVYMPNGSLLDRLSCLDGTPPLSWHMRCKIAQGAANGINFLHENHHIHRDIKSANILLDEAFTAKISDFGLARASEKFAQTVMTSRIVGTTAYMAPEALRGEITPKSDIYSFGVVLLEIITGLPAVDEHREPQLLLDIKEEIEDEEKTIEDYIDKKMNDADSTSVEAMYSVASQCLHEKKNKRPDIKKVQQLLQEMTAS

EC50 (A549 cells)	IC50 (IRAK4; [1])	Compound	further results
> 10 µM	< 100 nM	O=C1Nc2cn(CCC3CCNCC3)nc2C(=O)NCCOCCOc2cc(ccn2)-c2nc1cs2 [Example 155]	–
< 1 µM	< 100 nM	Cn1cc2c(n1)C(=O)NCCCCOc1cc(ccn1)-c1nc(cs1)C(=O)N2 [Example 91]	–
> 10 µM	< 1000 nM	CN(C)CCn1cc2c(n1)C(=O)NCCOCCOc1cc(ccn1)-c1nc(cs1)C(=O)N2 [Example 111]	–
< 1 µM	< 100 nM	O=C1Nc2cn(C3CCOCC3)nc2C(=O)NCCOCCCc2cc(ccn2)-c2nc1cs2 [Compound 47]	–
< 1 µM	< 100 nM	O=C1Nc2cn(C3CCOCC3)nc2C(=O)NCCOCCCOc2cc(ccn2)-c2nc1cs2 [Example 123]	–
< 10 µM	< 100 nM	Cn1cc2c(n1)C(=O)NCCOCCCc1cc(ccn1)-c1nc(cs1)C(=O)N2 [Compound 48]	–
< 1 µM	< 100 nM	O=C1Nc2cn(CCN3CCCCC3)nc2C(=O)NCCOCCNc2cc(ccn2)-c2nc1cs2 [Example 119]	–
< 10 µM	< 100 nM	O=C1Nc2cn(C3CCOCC3)nc2C(=O)NCCOCCOc2cc(ccn2)-c2nc1cs2 [Compound 44]	–
> 10 µM	< 1000 nM	CC(C)(C)OC(=O)N1CCN(CCn2ncc3c2C(=O)NCCOCCOc2cc(ccn2)-c2nc(cs2)C(=O)N3)CC1 [Example 108]	–
> 10 µM	< 1000 nM	O=C(O)CCn1cc2c(n1)C(=O)NCCOCCOc1cc(ccn1)-c1nc(cs1)C(=O)N2 [Example 149]	–
< 10 µM	< 100 nM	O=C1Nc2cn(C3CCOCC3)nc2C(=O)NCCOCCCCc2cc(ccn2)-c2nc1cs2 [Example 218]	–
< 10 µM	< 100 nM	CN(C)CCn1cc2c(n1)C(=O)NCCOCCNc1cc(ccn1)-c1nc(cs1)C(=O)N2 [Example 117]	–
> 10 µM	< 1000 nM	CN1CCC(Cn2cc3c(n2)C(=O)NCCOCCOc2cc(ccn2)-c2nc(cs2)C(=O)N3)CC1 [Example 158]	–
< 10 µM	< 100 nM	O=C1Nc2cn(C3CCOCC3)nc2C(=O)NCCCOCCOc2cc(ccn2)-c2nc1cs2 [Example 121]	–
< 10 µM	< 100 nM	O=C1Nc2cn(C3CCOCC3)nc2C(=O)NCCCCCc2cc(ccn2)-c2nc1co2 [Compound 40]	–
> 10 µM	< 100 nM	CN1CCC(CCn2cc3c(n2)C(=O)NCCOCCOc2cc(ccn2)-c2nc(cs2)C(=O)N3)CC1 [Example 153]	–
> 10 µM	< 100 nM	CN(C)CCNC(=O)c1ccc2c(c1)NC(=O)c1csc(n1)-c1ccnc(c1)NCCCCCO2 [Compound 16]	–
> 10 µM	< 100 nM	CCOC(=O)CCn1cc2c(n1)C(=O)NCCOCCOc1cc(ccn1)-c1nc(cs1)C(=O)N2 [Example 150]	–
> 10 µM	< 100 nM	O=C1Nc2cn(CCN3CCCCC3)nc2C(=O)NCCOCCOc2cc(ccn2)-c2nc1cs2 [Example 116]	–
< 1 µM	< 100 nM	Cn1cc2c(n1)C(=O)NCCOCCCn1cc(cn1)-c1nc(cs1)C(=O)N2 [Example 135]	–
> 10 µM	< 100 nM	O=C1Nc2cn(CCCO)nc2C(=O)NCCOCCOc2cc(ccn2)-c2nc1cs2 [Example 152]	–
> 10 µM	< 100 nM	CNC(=O)Cn1cc2c(n1)C(=O)NCCOCCOc1cc(ccn1)-c1nc(cs1)C(=O)N2 [Example 161]	–
< 10 µM	< 100 nM	CN1CCN(CCn2cc3c(n2)C(=O)NCCOCCNc2cc(ccn2)-c2nc(cs2)C(=O)N3)CC1 [Example 143]	–

EC50 (A549 cells)	IC50 (IRAK4; [1])	Compound	further results
–	< 100 nM	CCN1CCCCCCOc2cc(ccn2)-c2nc(co2)C1=O [Compound 53]	–
–	< 100 nM	CC(C)(C)OC(=O)NCCC(=O)N1CCCc2cc(ccn2)-c2nc(cs2)C(=O)Nc2cn(C3CCOCC3)nc2C(=O)NCC1 [Example 171]	–
–	< 100 nM	O=C1Nc2cn(C3CCOCC3)nc2C(=O)NCCOCCOc2cc(ccn2)-c2cccc1c2 [Example 210]	–
–	< 100 nM	O=C(NCCN1CCCCC1)c1ccc2c(c1)NC(=O)c1csc(n1)-c1ccnc(c1)NCCCCCO2 [Compound 18]	–
–	–	Cn1cc(N2CCCCOc3cnccc3-c3nc(co3)C2=O)cn1 [Example 89]	IC50 (IRAK4; [2]): > 10000 nM
–	< 100 nM	NCCC(=O)N1CCCc2cc(ccn2)-c2nc(cs2)C(=O)Nc2cn(C3CCOCC3)nc2C(=O)NCC1 [Example 178]	–
–	< 10000 nM	O=C1NCC2CCCC(C2)OCCCNc2cc(ccn2)-c2nc1cs2 (stereo not drawn) [Example 80]	–
–	< 10000 nM	CN1CCC(CCn2ncc3c2C(=O)NCCOCCOc2cc(ccn2)-c2nc(cs2)C(=O)N3)CC1 [Example 156]	–
–	< 100 nM	CN1CCOCCNC(=O)c2nn(C3CCOCC3)cc2NC(=O)c2csc(n2)-c2ccnc1c2 [Example 219]	–
–	< 10000 nM	CC(C)(C)OC(=O)N1CCC(CCn2ncc3c2C(=O)NCCOCCOc2cc(ccn2)-c2nc(cs2)C(=O)N3)CC1 [Example 157]	–
–	< 10000 nM	O=C(O)c1ccc2c(c1)NC(=O)c1csc(n1)-c1ccnc(c1)NCCCCCO2 [Compound 15]	–
–	< 100 nM	NC(=O)c1ccc2c(c1)NC(=O)c1csc(n1)-c1ccnc(c1)NCCCCCO2 [Compound 24]	–
–	< 10000 nM	O=C(O)CCC1NC(=O)c2nn(C3CCOCC3)cc2NC(=O)c2csc(n2)-c2ccnc(c2)CCCNC1=O (stereo not drawn) [Example 194]	–
–	< 100 nM	CNC(=O)c1ccc2c(c1)NC(=O)c1csc(n1)-c1ccnc(c1)NCCCCCO2 [Compound 17]	–
–	–	CN1CCCCCCOc2cc(ccn2)-c2nc(co2)C1=O [Compound 52]	IC50 (IRAK4; [2]): > 10000 nM
–	< 100 nM	O=C1Nc2cc(Br)ccc2OCCCCCNc2cc(ccn2)-c2nc1cs2 [Example 73]	–
–	< 100 nM	CN(C)CCNC(=O)c1ccc2c(c1)OCCCCCNc1cc(ccn1)-c1nc(cs1)C(=O)N2 [Compound 25]	–
–	< 100 nM	O=C1NCCCCCCCCNc2cc(ccn2)-c2nc1co2 [Example 68]	–
–	–	O=C1c2coc(n2)-c2ccnc(c2)OCCCCCCN1CCCN1CCCCC1 [Compound 57]	IC50 (IRAK4; [2]): > 10000 nM
–	< 100 nM	O=C1Nc2ccccc2OCCCCCCn2cc(cn2)-c2nc1cs2 [Example 72]	–
–	–	O=C1c2coc(n2)-c2ccncc2OCCCN1CCCN1CCCCC1 [Example 102]	IC50 (IRAK4; [2]): > 10000 nM
–	< 100 nM	O=C1NCC(c2ccccc2)OCCCCCNc2cc(ccn2)-c2nc1co2 (stereo not drawn) [Example 76]	–
–	–	COC(=O)c1ccc2c(c1)NC(=O)c1csc(n1)-c1ccnc(c1)NCCCCCO2 [Compound 14]	IC50 (IRAK4; [2]): > 10000 nM

EC50 (A549 cells)	IC50 (IRAK4; [1])	Compound	further results
–	–	O=C1c2coc(n2)-c2ccnc(c2)OCCCCCCN1CCN1CCCCC1 [Compound 56]	IC50 (IRAK4; [2]): > 10000 nM
–	–	O=C1Nc2cn(C3CCOCC3)nc2C(=O)NC(CCOCc2ccccc2)C(=O)NCCCc2cc(ccn2)-c2nc1cs2 (stereo not drawn) [Example 199]	IC50 (IRAK4; [2]): > 10000 nM
–	–	O=C1NCC(C2CCCCC2)OCCCCCNc2cc(ccn2)-c2nc1co2 (stereo not drawn) [Example 77]	IC50 (IRAK4; [2]): > 10000 nM
–	< 100 nM	O=C1Nc2cn(C3CCOCC3)nc2C(=O)NCCCCOc2cc(ccn2)-c2nc1co2 [Compound 36]	–
–	< 1000 nM	CC(C)(C)C(=O)N1CCCc2cc(ccn2)-c2nc(cs2)C(=O)Nc2cn(C3CCOCC3)nc2C(=O)NCC1 [Example 182]	–
–	< 100 nM	O=C1Nc2cn(C3CCOCC3)nc2C(=O)NCCN(C(=O)CCO)CCCc2cc(ccn2)-c2nc1cs2 [Example 188]	–
–	< 1000 nM	Cn1cc2c(n1)C(=O)NCCCCCn1cc(cn1)-c1nc(co1)C(=O)N2 [Compound 41]	–
–	< 1000 nM	CN1CCCCCOc2ccccc2NC(=O)c2coc(n2)-c2ccnc1c2 [Compound 11]	–
–	< 100 nM	Cn1cc2c(n1)C(=O)NCCCCCNc1cc(ccn1)-c1nc(co1)C(=O)N2 [Compound 33]	–
–	< 1000 nM	CC(C)(C)OC(=O)N1CCNC(=O)c2nn(C3CCOCC3)cc2NC(=O)c2csc(n2)-c2ccnc(c2)OCC1 [Example 167]	–
–	< 100 nM	CCNC(=O)N1CCCc2cc(ccn2)-c2nc(cs2)C(=O)Nc2cn(C3CCOCC3)nc2C(=O)NCC1 [Example 191]	–
–	–	O=C1Nc2ccccc2OCCCCCCCn2cc(cn2)-c2nc1cs2 [Compound 6]	IC50 (IRAK4): < 1000 nM
–	< 100 nM	Cn1cc2c(n1)C(=O)NCCOCCOc1cc(ccn1)-c1nc(co1)C(=O)N2 [Compound 35]	–
–	< 100 nM	Cn1cc2c(n1)C(=O)NCCCOCCCc1cc(ccn1)-c1nc(cs1)C(=O)N2 [Example 215]	–
–	< 10000 nM	O=C1Nc2cn(C3CCOCC3)nc2C(=O)NC(CCO)C(=O)NCCCc2cc(ccn2)-c2nc1cs2 (stereo not drawn) [Example 198]	–
–	< 100 nM	O=C1Nc2cn(C3CCOCC3)nc2C(=O)NCCCOCCCc2cc(ccn2)-c2nc1cs2 [Example 216]	–
–	< 100 nM	Cn1cc2c(n1)C(=O)NCCCCCOc1cnccc1-c1nc(co1)C(=O)N2 [Example 63]	–
–	< 100 nM	O=C1CCc2cc(ccn2)-c2nc(cs2)C(=O)Nc2cn(C3CCOCC3)nc2C(=O)NCCN1 [Example 225]	–
–	–	CCn1cc(N2CCCCCCOc3cc(ccn3)-c3nc(co3)C2=O)cn1 [Compound 50]	IC50 (IRAK4; [2]): > 10000 nM
–	< 10000 nM	O=C1c2coc(n2)-c2ccnc(c2)OCCCCOCC2CCCN12 (stereo not drawn) [Example 104]	–
–	< 10000 nM	O=C1NCc2ccc(cc2)OCCOc2cc(ccn2)-c2nc1co2 [Example 78]	–
–	< 10000 nM	O=C1Nc2cn(C3CCOCC3)nc2C(=O)NCCCc2cc(ccn2)-c2nc1cs2 [Example 192]	–
–	< 1000 nM	Cn1cc2c(n1)C(=O)NCCCCOc1cnccc1-c1nc(co1)C(=O)N2 [Example 62]	–

Compound	EC50 (A549 cells)	IC50 (IRAK4; [1])	further results
O=C1Nc2ccccc2OCCCCCCc2cc(ccn2)-c2nc1co2 [Compound 5]	–	< 100 nM	–
